Laboratory results as given in patent US10717736B2, “Pyrrole amides as alpha V integrin inhibitors” (BRISTOL-MYERS SQUIBB COMPANY, priority 2016, dated 2020).
Counter-ions that a name gives are not always drawn.

Experiments:
human αVβ6 Integrin = molecular target: T1, human αVβ6 Integrin (Homo sapiens, UniProt P06756+P18564); experiment: human αVβ6 HTRF binding assay
T1 construct: purchased R & D systems 3817-AV
Method: (§1) All binding assays used the HTRF (homogeneous time resolved fluorescence) technology from Cisbio International, therefore all assays are described as HTRF binding assays. The assay results for the Examples are listed above together with the characterization data. The HTRF binding assays are established for the following integrins: human αVβ6, human αVβ1, human αVβ3, human αVβ5, and human αVβ8. All assays used the following assay buffer: 20 mM Tris, pH 7.4, 1 mM MgCl2, 1 mM MnCl2, 0.01% Tween 20, and 0.01% BSA. Alternatively, a SPA-based assay was used for evaluation of receptor binding.
(§2) The following describes the components and a representative procedure for the human αVβ6 HTRF binding assay: Recombinant human αVβ6 Integrin (R & D systems, 3817-AV) was biotinylated. Biotinylated human αVβ6 Integrin was added to assay vessel at a final concentration of 1.25 nM. FITC-conjugated fibronectin (Cytoskeleton, FNR02) was then added at the final concentration of 5 nM. The mixture was centrifuged at 600 rpm for three minutes using Thermo Fisher Heraeus Multifuge X3 centrifuge and then incubated at RT for an hour. Streptavidin Terbium (Cisbio international 610STLB) was then added at the final concentration of 0.625 nM. The resulting mixture was centrifuged at 600 rpm for three minutes using Thermo Fisher Heraeus Multifuge X3 centrifuge and then incubated at room temperature overnight in dark before reading HTRF signals.

human αVβ1 = human αVβ1 (Homo sapiens, UniProt P05556+P06756); experiment: human αVβ1 HTRF binding assay
human αVβ1, sequence (P06756 31-992 limits assumed): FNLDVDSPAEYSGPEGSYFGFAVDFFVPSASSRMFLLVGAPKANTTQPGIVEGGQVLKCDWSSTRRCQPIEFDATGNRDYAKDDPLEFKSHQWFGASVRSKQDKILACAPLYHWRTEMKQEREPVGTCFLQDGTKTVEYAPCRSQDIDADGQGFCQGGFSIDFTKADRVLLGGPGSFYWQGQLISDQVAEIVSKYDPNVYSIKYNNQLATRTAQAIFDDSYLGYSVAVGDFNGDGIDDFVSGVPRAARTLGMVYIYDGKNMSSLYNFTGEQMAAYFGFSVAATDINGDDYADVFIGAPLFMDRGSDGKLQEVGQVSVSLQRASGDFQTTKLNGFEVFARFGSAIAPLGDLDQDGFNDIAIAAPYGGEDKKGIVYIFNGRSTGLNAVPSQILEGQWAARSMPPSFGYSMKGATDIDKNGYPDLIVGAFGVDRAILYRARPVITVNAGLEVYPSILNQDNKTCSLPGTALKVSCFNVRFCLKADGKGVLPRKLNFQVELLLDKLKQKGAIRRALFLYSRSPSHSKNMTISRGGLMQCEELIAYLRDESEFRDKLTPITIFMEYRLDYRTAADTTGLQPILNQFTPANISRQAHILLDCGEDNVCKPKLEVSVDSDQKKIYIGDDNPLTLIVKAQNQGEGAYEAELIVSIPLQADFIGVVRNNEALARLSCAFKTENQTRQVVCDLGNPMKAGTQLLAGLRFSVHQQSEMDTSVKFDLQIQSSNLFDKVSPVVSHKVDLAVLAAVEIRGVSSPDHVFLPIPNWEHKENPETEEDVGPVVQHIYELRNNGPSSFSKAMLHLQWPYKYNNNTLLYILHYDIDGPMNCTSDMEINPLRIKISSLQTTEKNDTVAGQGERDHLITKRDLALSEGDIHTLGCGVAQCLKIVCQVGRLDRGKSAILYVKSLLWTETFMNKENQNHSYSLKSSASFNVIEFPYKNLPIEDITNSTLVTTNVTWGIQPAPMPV
human αVβ1, sequence (P05556 21-728 limits assumed): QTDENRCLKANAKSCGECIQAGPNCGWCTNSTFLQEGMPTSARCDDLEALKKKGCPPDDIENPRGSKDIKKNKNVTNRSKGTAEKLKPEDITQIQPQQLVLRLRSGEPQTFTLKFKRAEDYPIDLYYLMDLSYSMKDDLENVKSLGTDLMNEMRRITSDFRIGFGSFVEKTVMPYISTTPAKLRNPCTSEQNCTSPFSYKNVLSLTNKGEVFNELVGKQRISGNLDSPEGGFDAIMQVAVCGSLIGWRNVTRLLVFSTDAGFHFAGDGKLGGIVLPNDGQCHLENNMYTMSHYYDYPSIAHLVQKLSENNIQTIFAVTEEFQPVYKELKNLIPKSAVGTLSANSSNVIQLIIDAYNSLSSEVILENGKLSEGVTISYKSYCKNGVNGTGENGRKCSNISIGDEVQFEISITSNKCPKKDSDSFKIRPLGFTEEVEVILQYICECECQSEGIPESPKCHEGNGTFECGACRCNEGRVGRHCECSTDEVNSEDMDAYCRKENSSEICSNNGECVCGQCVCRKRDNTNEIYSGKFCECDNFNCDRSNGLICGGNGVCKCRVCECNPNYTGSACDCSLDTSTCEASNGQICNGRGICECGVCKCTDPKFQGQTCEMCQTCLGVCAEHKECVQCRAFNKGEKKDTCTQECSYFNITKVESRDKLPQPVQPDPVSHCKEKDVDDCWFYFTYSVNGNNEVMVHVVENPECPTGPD
Method: as §1, §2

human αVβ8 = human αVβ8 (Homo sapiens, UniProt P06756+P26012); experiment: human αVβ8 HTRF binding assay
human αVβ8, sequence (P06756 31-992 limits assumed): as the sequence (P06756 31-992 limits assumed) above
human αVβ8, sequence (P26012 43-684 limits assumed): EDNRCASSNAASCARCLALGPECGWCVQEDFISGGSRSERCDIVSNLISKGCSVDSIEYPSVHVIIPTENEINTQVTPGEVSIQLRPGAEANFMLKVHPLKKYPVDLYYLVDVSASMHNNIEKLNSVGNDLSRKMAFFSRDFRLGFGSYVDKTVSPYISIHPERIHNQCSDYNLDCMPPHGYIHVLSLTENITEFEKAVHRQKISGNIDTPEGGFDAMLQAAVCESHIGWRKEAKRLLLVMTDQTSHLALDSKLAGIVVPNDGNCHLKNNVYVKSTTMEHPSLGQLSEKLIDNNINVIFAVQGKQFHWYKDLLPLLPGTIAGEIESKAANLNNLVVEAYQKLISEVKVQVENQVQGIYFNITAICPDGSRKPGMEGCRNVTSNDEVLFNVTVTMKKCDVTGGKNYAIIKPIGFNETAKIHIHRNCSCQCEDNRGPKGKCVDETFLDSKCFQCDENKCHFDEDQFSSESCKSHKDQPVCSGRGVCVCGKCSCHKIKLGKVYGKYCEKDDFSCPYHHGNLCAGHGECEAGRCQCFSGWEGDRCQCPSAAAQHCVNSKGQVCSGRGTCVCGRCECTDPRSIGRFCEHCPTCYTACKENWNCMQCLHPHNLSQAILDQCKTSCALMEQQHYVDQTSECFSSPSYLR
Method: as §1, §2

human αVβ5 = human αVβ5 (Homo sapiens, UniProt P06756+P18084); experiment: human αVβ5 HTRF binding assay
human αVβ5, sequence (P06756 31-992 limits assumed): as the sequence (P06756 31-992 limits assumed) above
human αVβ5, sequence (P18084 24-719 limits assumed): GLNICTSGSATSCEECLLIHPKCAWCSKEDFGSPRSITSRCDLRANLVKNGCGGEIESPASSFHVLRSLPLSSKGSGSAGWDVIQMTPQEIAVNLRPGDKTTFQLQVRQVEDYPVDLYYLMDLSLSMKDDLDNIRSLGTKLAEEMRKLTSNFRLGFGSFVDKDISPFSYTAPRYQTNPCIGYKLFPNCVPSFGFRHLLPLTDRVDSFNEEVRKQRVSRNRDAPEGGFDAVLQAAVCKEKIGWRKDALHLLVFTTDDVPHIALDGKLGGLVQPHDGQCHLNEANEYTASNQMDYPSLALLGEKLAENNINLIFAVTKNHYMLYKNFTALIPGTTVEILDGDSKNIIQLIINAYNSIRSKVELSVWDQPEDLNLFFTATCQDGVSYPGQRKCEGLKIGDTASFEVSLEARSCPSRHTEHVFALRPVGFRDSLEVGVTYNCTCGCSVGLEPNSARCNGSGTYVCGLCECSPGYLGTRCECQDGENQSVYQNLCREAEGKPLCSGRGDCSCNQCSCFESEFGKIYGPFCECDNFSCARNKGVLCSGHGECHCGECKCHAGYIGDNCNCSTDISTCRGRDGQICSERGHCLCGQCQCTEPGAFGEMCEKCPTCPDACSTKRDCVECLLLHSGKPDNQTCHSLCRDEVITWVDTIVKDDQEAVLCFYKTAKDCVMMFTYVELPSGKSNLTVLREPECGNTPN
Method: as §1, §2

human αVβ3 = human αVβ3 (Homo sapiens, UniProt P05106+P06756); experiment: human αVβ3 HTRF binding assay
human αVβ3, sequence (P06756 31-992 limits assumed): as the sequence (P06756 31-992 limits assumed) above
human αVβ3, sequence (P05106 27-718 limits assumed): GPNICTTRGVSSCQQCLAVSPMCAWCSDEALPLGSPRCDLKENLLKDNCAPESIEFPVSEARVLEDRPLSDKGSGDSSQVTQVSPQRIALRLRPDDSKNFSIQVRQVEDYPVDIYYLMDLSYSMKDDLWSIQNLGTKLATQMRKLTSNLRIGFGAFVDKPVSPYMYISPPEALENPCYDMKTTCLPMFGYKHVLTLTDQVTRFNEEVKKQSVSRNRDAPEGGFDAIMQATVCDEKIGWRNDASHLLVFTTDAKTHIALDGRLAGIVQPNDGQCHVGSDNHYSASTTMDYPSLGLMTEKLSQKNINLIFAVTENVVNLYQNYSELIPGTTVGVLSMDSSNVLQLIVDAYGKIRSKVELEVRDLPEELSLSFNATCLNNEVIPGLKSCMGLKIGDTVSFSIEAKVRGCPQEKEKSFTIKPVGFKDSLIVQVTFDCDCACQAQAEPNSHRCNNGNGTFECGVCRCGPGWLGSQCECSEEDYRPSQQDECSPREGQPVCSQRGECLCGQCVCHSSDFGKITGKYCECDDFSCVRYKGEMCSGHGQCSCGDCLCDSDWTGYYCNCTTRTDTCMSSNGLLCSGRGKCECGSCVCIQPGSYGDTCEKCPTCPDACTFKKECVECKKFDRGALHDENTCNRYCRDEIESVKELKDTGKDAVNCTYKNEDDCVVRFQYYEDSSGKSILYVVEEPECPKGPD
Method: as §1, §2

T1 sequence (P06756 31-992 limits assumed): as the sequence (P06756 31-992 limits assumed) above
T1 sequence (P18564 22-707 limits assumed): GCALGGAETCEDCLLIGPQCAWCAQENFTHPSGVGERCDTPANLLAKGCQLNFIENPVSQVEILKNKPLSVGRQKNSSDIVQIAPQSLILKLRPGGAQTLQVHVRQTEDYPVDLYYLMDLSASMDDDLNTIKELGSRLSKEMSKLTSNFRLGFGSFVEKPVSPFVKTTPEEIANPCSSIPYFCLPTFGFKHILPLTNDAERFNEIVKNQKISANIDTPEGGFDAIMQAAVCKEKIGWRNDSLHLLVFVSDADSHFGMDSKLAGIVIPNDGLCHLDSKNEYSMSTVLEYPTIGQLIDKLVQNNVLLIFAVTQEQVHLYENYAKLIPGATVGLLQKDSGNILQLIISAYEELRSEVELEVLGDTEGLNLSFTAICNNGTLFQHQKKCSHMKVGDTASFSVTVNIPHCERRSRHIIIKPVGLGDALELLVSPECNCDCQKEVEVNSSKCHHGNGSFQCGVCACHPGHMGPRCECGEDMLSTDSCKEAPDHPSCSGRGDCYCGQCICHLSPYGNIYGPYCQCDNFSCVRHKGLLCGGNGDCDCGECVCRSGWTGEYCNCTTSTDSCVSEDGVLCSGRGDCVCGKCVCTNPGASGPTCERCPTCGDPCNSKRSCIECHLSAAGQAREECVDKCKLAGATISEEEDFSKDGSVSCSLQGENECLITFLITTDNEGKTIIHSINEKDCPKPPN

Compound	IC50 (human αVβ6 Integrin) [nM]	IC50 (human αVβ1) [nM]	IC50 (human αVβ8) [nM]	IC50 (human αVβ5) [nM]	IC50 (human αVβ3) [nM]
COc1ccc([C@H](CC(=O)O)NC(=O)c2cc(CCC3CCc4cccnc4N3)c[nH]2)cc1F (mixture of isomers) [Example 2, (3S)-3-(3-Fluoro-4-methoxyphenyl)-3-(4-(2-(1,2,3,4-tetrahydro-1,8-naphthyridin-2-yl)ethyl)-1H-pyrrole-2-carboxamido)propanoic Acid]	3.75				
Cc1cc(C)c(S(=O)(=O)N[C@@H](CNC(=O)c2cc(CCC3CCc4cccnc4N3)c[nH]2)C(=O)O)c(C)c1 (mixture of isomers) [Example 24, (2S)-3-(4-(2-(1,2,3,4-Tetrahydro-1,8-naphthyridin-2-yl)ethyl)-1H-pyrrole-2-carboxamido)-2-((2,4,6-trimethylphenyl)sulfonamido)propanoic Acid]	0.61	3.03	11.9	0.23	2
COc1ccc([C@H](CC(=O)O)NC(=O)c2cc(CCc3ccc4c(n3)NCCC4)cn2C)cc1F [Example 4]	22.1				
CCn1cc(CCc2ccc3c(n2)NCCC3)cc1C(=O)N[C@@H](CC(=O)O)c1ccc(OC)c(F)c1 [Example 5]	50.3				
COc1ccc([C@H](CC(=O)O)NC(=O)c2cc(CCc3ccc4c(n3)NCCC4)c(C)[nH]2)cc1F [Example 6]	5.93				
COc1ccc([C@H](CC(=O)O)NC(=O)c2cc(CCc3ccc4c(n3)NCCC4)cn2C)cn1 [Example 8]	22.5				
CCn1cc(CCc2ccc3c(n2)NCCC3)cc1C(=O)N[C@@H](CC(=O)O)c1ccc(OC)nc1 [Example 9]	46.8				
COc1ccc([C@H](CC(=O)O)NC(=O)c2cc(CCc3ccc4c(n3)NCCC4)c(C)[nH]2)cn1 [Example 10]	3.96		415	10.4	2.49
COc1ccc([C@H](CC(=O)O)NC(=O)c2cc(-c3ccc4c(n3)NCCC4)c[nH]2)cc1F [Example 19]	81				
Cc1cc(C)c(S(=O)(=O)N[C@@H](CNC(=O)c2cc(CCc3ccc4c(n3)NCCC4)c[nH]2)C(=O)O)c(C)c1 [Example 23, (S)-3-(4-(2-(5,6,7,8-Tetrahydro-1,8-naphthyridin-2-yl)ethyl)-1H-pyrrole-2-carboxamido)-2-((2,4,6-trimethylphenyl)sulfonamido)propanoic Acid]	1.02		9.06	0.54	5.36
O=C(N[C@@H](CNC(=O)c1cc(CCc2ccc3c(n2)NCCC3)c[nH]1)C(=O)O)OCc1ccccc1 [Example 25, (S)-2-(((Benzyloxy)carbonyl)amino)-3-(4-(2-(5,6,7,8-tetrahydro-1,8-naphthyridin-2-yl)ethyl)-1H-pyrrole-2-carboxamido)propanoic Acid, TFA]	0.34		12.6	0.16	1.5
O=C(N[C@@H](CNC(=O)c1cc(CCc2ccc3c(n2)NCCC3)c[nH]1)C(=O)O)OC1CCCC1 [Example 26, (S)-2-(((Cyclopentyloxy)carbonyl)amino)-3-(4-(2-(5,6,7,8-tetrahydro-1,8-naphthyridin-2-yl)ethyl)-1H-pyrrole-2-carboxamido)propanoic Acid]	0.28		8.78	0.09	1.67

Other lines, results leading:

IC50 (human αVβ6 Integrin) [nM]	IC50 (human αVβ1) [nM]	IC50 (human αVβ8) [nM]	IC50 (human αVβ5) [nM]	IC50 (human αVβ3) [nM]	Compound
2.55					COc1ccc([C@H](CC(=O)O)NC(=O)c2cc(CCc3ccc4c(n3)NCCC4)c[nH]2)cc1F [Example 1, (S)-3-(3-Fluoro-4-methoxyphenyl)-3-(4-(2-(5,6,7,8-tetrahydro-1,8-naphthyridin-2-yl)ethyl)-1H-pyrrole-2-carboxamido)propanoic Acid]
229					COc1ccc([C@@H](CC(=O)O)NC(=O)c2cc(CCc3ccc4c(n3)NCCC4)c[nH]2)cc1F [Example 3]
4					COc1ccc([C@H](CC(=O)O)NC(=O)c2cc(CCc3ccc4c(n3)NCCC4)c[nH]2)cn1 [Example 7]
2.03					O=C(O)C[C@H](NC(=O)c1cc(CCc2ccc3c(n2)NCCC3)c[nH]1)c1cc(Cl)cc(Cl)c1 [Example 11]
0.63					CC(C)(C)c1cc(Br)cc([C@H](CC(=O)O)NC(=O)c2cc(CCc3ccc4c(n3)NCCC4)c[nH]2)c1 [Example 12]
6.7	4000		3.84	4.59	Cc1ncc(C(CC(=O)O)NC(=O)c2cc(CCc3ccc4c(n3)NCCC4)c[nH]2)cn1 (stereo not shown) [Example 13]
7.17	3710		5.68	4.69	COc1ncc(C(CC(=O)O)NC(=O)c2cc(CCc3ccc4c(n3)NCCC4)c[nH]2)cn1 (stereo not shown) [Example 14]
11.9					O=C(O)CC(NC(=O)c1cc(CCc2ccc3c(n2)NCCC3)c[nH]1)c1cncnc1 (stereo not shown) [Example 15]
1.1	360		1.73	3.44	O=C(O)C[C@H](NC(=O)c1cc(CCc2ccc3c(n2)NCCC3)c[nH]1)c1cnc2ccccc2c1 [Example 16]
4.63	1220	3760	0.85	3.68	O=C(O)C[C@H](NC(=O)c1cc(CCc2ccc3c(n2)NCCC3)c[nH]1)c1ccc2c(c1)OCC2 [Example 17]
25.9					O=C(O)CC(NC(=O)c1cc(CCc2ccc3c(n2)NCCC3)c[nH]1)c1cnc2ccccc2n1 (stereo not shown) [Example 18]
22.4					COc1ccc([C@H](CC(=O)O)NC(=O)c2cc(CCCc3ccc4c(n3)NCCC4)c[nH]2)cn1 [Example 20]
167					Cc1ncc([C@H](CC(=O)O)NC(=O)c2cc(CCCc3ccc4c(n3)NCCC4)c[nH]2)cn1 [Example 21]
14.5					COc1ncc([C@H](CC(=O)O)NC(=O)c2cc(CCCc3ccc4c(n3)NCCC4)c[nH]2)cn1 [Example 22]
